Data from US20120028918A1, “PHARMACEUTICAL COMPOSITIONS AND METHODS OF MAKING SAME” (GLAXO WELLCOME MANUFACTURING PTE LTD., priority 2010, published 2012).

Tests used:
[1] = biological target: T1, Akt1 (Homo sapiens, UniProt P31749); assay: Akt kinase assay (HTRF, GSK-derived biotinylated peptide substrate); assay type: biochemical; settings: activated Akt1, HTRF, 120 minute preincubation; read-out: IC50 against Akt1
T1 construct: a middle T tag was added to the 5′ end of the full length Akt1 gene; middle T tag (EYMPME) (N); biotin tag (from pS2neo vector); made in house; host or cells: Drosophila S2 cells
T1 sequence (P31749 whole entry): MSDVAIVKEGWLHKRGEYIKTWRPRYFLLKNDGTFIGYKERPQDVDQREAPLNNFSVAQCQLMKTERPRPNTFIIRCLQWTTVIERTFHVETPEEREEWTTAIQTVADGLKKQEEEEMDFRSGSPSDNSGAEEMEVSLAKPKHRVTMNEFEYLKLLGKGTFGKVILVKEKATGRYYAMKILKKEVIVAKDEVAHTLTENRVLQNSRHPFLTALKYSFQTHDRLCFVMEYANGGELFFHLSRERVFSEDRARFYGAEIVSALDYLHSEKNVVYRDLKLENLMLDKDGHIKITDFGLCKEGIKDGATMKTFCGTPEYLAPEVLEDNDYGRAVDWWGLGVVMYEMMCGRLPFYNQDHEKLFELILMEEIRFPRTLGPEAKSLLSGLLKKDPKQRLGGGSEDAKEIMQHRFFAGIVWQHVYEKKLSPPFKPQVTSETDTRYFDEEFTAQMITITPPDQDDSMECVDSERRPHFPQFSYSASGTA
Method: (§1) Activated Akt isoforms were assayed utilizing a GSK-derived biotinylated peptide substrate. The extent of peptide phosphorylation was determined by Homogeneous Time Resolved Fluorescence (HTRF) using a europium-coupled monoclonal antibody specific for the phosphopeptide in combination with a streptavidin-linked allophycocyanin (SA-APC) fluorophore which will bind to the biotin moiety on the peptide. When the europium and APC are in proximity (i.e. bound to the same phosphopeptide molecule), a non-radiative energy transfer takes place from the […] to the APC, followed by emission of light from APC at 665 nm.
(§2) Materials required for the assay: • A. 100 nM activated Akt1 or 225 nM activated Akt2 • B. 10×R for AKT assay buffer (500 mM Hepes pH 7.5, 1% PEG m.w. 15000-20000, 1 mM EDTA, 1 mM EGTA, 1% BSA, 20 mM β glycerol phosphate) • C. 1 M KCl • D. 50% glycerol • E. 250 mM MgCl2 • F. 50 mM ATP pH 7.0 • G. 0.2 M DTT • H. 1 mM GSK3α biotinylated peptide (SynPep biotin-[…]-COOH) • I. Stop Buffer: 40 mM EDTA (pH8.4) • J. 8.5 uM SA-APC (PerkinElmer #CR130-100, lot No. N01001K-AAG16) • K. 4.9 uM Eu-W 1024 labeled phos-GSK3 monoclonal antibody (PerkinElmer #CUSM63178) • L. Detection Reagent: 15 mM Tris-HCl ([…]), 0.1% Tween20, 250 nM SA-APC (PerkinElmer #CR130-100, lot No. N01001K-AAG16), 0.735 nM Eu-W1024 labeled phos-GSK3 monoclonal antibody (PerkinElmer #CUSM63178) The reaction was assembled using the following protocol: • A. Add 0.5 uL inhibitor to test wells or 0.5 uL DMSO to no drug control wells. • B. Prepare Enzyme diluent: 18000 uL 10×R for AKT assay buffer, 9600 uL 250 mM MgCl2, 12000 uL 1 M KCl, 18000 uL 50% Glycerol, 900 uL 0.2 M DTT, 121500 uL MilliQ water. • C. Prepare Enzyme mixture (E-Mix): To […] Enzyme diluent, added 4.3 uL of a 100 nM activated AKT1, 1.9 uL of a 225 nM stock of activated Akt2 so concentration AKT1 and Akt2 were 6 pM. • D. 10 uL of Stop Buffer was added manually to wells acting as Background control wells. Initiate preincubation reactions by adding 15 uL of E-Mix using Multidrop 384. Spin down assay plates after the addition of E-Mix. • E. Prepare ATP/Peptide working solution (S-Mix): 10000 uL 10×R for AKT assay buffer, 5000 uL 50% glycerol, 250 uL 0.2M DTT, 600 uL 50 mM ATP, 100 uL 1 mM GSK3 peptide, 34050 uL MilliQ water. • F. To wells where preincubation is being conducted, after the 120 minute preincubation, initiate kinase reactions by adding 5 uL S-Mix using FRD. […] Let kinase assays run for 60 minutes at 25° C. • G. Stop kinase reactions by adding 10 uL Stop Buffer, using Multidrop 384, to wells other than background wells. • H. 10 uL of Detection Reagent was added using FRD and stopped assays were stored at room temperature for more than 2 hours. • I. The plates were read on PHERAstar.

[2] = biological target: T2, Akt2 (Homo sapiens, UniProt P31751); assay: as above; assay type: biochemical; settings: activated Akt2, HTRF, 120 minute preincubation; read-out: IC50 against Akt2
T2 construct: a middle T tag was added to the 5′ end of the full length Akt2 using the PCR primer; middle T tag (EYMPME) (N); biotin tag (from pS2neo vector); made in house; host or cells: Drosophila S2 cells
T2 sequence (P31751 whole entry): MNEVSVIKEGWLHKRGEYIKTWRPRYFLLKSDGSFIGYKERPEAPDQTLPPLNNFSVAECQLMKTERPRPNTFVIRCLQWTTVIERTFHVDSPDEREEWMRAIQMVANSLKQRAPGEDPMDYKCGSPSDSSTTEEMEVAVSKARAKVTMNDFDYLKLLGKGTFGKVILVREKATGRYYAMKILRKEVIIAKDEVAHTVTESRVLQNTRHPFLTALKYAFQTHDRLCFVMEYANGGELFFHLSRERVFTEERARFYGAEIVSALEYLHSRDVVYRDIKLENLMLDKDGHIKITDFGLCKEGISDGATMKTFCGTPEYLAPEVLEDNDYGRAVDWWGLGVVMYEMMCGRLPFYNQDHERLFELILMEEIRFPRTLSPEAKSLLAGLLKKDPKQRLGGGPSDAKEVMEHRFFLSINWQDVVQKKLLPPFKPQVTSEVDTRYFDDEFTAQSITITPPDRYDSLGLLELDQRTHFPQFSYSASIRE
Method: as §1, §2

COc1ccc(-c2nc(-c3ccc([C@]4(N)C[C@](C)(O)C4)cc3)c(-c3ccccc3)s2)cn1 [Compound 2-1, (1R,3R)-3-amino-3-(4-(2-(6-methoxypyridin-3-yl)-5-phenylthiazol-4-yl)phenyl)-1-methylcyclobutanol]
IC50 [1]: 91 nM | IC50 [2]: 26 nM

COc1cncc(-c2nc(-c3ccc([C@]4(N)C[C@](C)(O)C4)cc3)c(-c3ccccc3)s2)c1 [Compound 3-1, (1R,3R)-3-amino-3-(4-(2-(5-methoxypyridin-3-yl)-5-phenylthiazol-4-yl)phenyl)-1-methylcyclobutanol]
IC50 [1]: 40 nM | IC50 [2]: 25 nM
